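Each compound was tested at five concentrations against cells in 96-well plates for 48 hours. GI50: concentration for 50% inhibition of growth.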 Active and inactive are the calls of the source. Rule as the data show it: active = GI50 up to about 1.1 µM and inactive = higher.
Assays:
Test in all cases: NCI-60 cell line screen, 48 h
SN12C = system: SN12C
HCT-15 = system: HCT-15
786-0 = system: 786-0
CCRF-CEM = system: CCRF-CEM
NCI-H522 = system: NCI-H522
MDA-MB-435 = system: MDA-MB-435
SF-268 = system: SF-268
SK-MEL-28 = system: SK-MEL-28
IGROV-1 = system: IGROV-1
A498 = system: A498
BT-549 = system: BT-549
MCF7 = system: MCF7
OVCAR-3 = system: OVCAR-3
SF-539 = system: SF-539
SW-620 = system: SW-620
HL-60 = system: HL-60
TK-10 = system: TK-10
UACC-62 = system: UACC-62
NCI-H23 = system: NCI-H23
OVCAR-5 = system: OVCAR-5
CAKI-1 = system: CAKI-1
SNB-75 = system: SNB-75
UO-31 = system: UO-31
Hs-578T = system: Hs-578T
HOP-62 = system: HOP-62
SK-OV-3 = system: SK-OV-3
ACHN = system: ACHN
HOP-92 = system: HOP-92
SNB-19 = system: SNB-19
NCI/ADR-RES = system: NCI/ADR-RES
M14 = system: M14
HCC 2998 = system: HCC 2998
HCT-116 = system: HCT-116
Malme-3M = system: Malme-3M
OVCAR-8 = system: OVCAR-8
SF-295 = system: SF-295
EKVX = system: EKVX
UACC-257 = system: UACC-257
MDA-MB-231 = system: MDA-MB-231
OVCAR-4 = system: OVCAR-4
PC-3 = system: PC-3
SK-MEL-2 = system: SK-MEL-2
RXF 393 = system: RXF 393
A549 = system: A549
MDA-N = system: MDA-N
SR = system: SR
SK-MEL-5 = system: SK-MEL-5
COLO 205 = system: COLO 205
NCI-H226 = system: NCI-H226
DU-145 = system: DU-145
U-251 = system: U-251
NCI-H460 = system: NCI-H460
HT-29 = system: HT-29
LOX IMVI = system: LOX IMVI
K562 = system: K562

COc1cccc2c1OC(c1ccc(C#N)cc1)C([N+](=O)[O-])=C2 (stereo not given)
GI50 (SN12C): 2.04 µM (inactive) | GI50 (HCT-15): 1.7 µM | GI50 (786-0): 0.482 µM (active) | GI50 (CCRF-CEM): 1.58 µM (inactive) | GI50 (NCI-H522): 0.214 µM (active) | GI50 (MDA-MB-435): 1.39 µM (inactive) | GI50 (SF-268): 4.12 µM (inactive) | GI50 (SK-MEL-28): 2.28 µM (inactive) | GI50 (IGROV-1): 1.92 µM (inactive) | GI50 (A498): 1.84 µM (inactive) | GI50 (BT-549): 1.49 µM (inactive) | GI50 (MCF7): 1.5 µM (inactive) | GI50 (OVCAR-3): 2.02 µM (inactive) | GI50 (SF-539): 1.91 µM (inactive) | GI50 (SW-620): 1.42 µM (inactive) | GI50 (HL-60): 1.41 µM (inactive) | GI50 (TK-10): 3.11 µM (inactive) | GI50 (UACC-62): 1.6 µM (inactive) | GI50 (NCI-H23): 1.71 µM (inactive) | GI50 (OVCAR-5): 1.95 µM (inactive) | GI50 (CAKI-1): 0.908 µM (active) | GI50 (SNB-75): 2.47 µM (inactive) | GI50 (UO-31): 1.64 µM (inactive) | GI50 (Hs-578T): 1.78 µM (inactive) | GI50 (HOP-62): 3.21 µM (inactive) | GI50 (SK-OV-3): 3.23 µM (inactive) | GI50 (ACHN): 1.77 µM (inactive) | GI50 (HOP-92): 1.62 µM (inactive) | GI50 (SNB-19): 6.46 µM (inactive) | GI50 (NCI/ADR-RES): > 100 µM (inactive) | GI50 (M14): 1.78 µM (inactive) | GI50 (HCC 2998): 1.76 µM (inactive) | GI50 (HCT-116): 1.48 µM (inactive) | GI50 (Malme-3M): 1.61 µM (inactive) | GI50 (OVCAR-8): 1.25 µM (inactive) | GI50 (SF-295): 6.14 µM (inactive) | GI50 (EKVX): 6.24 µM (inactive) | GI50 (UACC-257): 1.38 µM (inactive) | GI50 (MDA-MB-231): 1.56 µM (inactive) | GI50 (OVCAR-4): 1.68 µM (inactive) | GI50 (PC-3): 1.88 µM (inactive) | GI50 (SK-MEL-2): 2.01 µM (inactive) | GI50 (RXF 393): 1.58 µM (inactive) | GI50 (A549): 2.56 µM (inactive) | GI50 (MDA-N): 1.52 µM (inactive) | GI50 (SR): 0.778 µM (active) | GI50 (SK-MEL-5): 1.53 µM (inactive) | GI50 (COLO 205): 1.74 µM (inactive) | GI50 (NCI-H226): 2.98 µM (inactive) | GI50 (DU-145): 3.12 µM (inactive) | GI50 (U-251): 1.86 µM (inactive) | GI50 (NCI-H460): 2.22 µM (inactive) | GI50 (HT-29): 1.72 µM (inactive) | GI50 (LOX IMVI): 1.91 µM (inactive) | GI50 (K562): 1.21 µM (inactive)
